Activity calls are given as the source filed them. No cut-off for these calls is given here.
How the values were obtained:
[1] = target: T1, Botulinum neurotoxin type A (Clostridium botulinum, UniProt P0DPI0)
[2] = target: T1, Botulinum neurotoxin type A; remark: listed apart in the source
[3] = target: Botulinum neurotoxin type A (Clostridium botulinum) (UniProt P0DPI0)
[4] = target: Botulinum neurotoxin type A (Clostridium botulinum) (UniProt P0DPI0); conditions: 90 uM
[5] = target: Botulinum neurotoxin type A (Clostridium botulinum) (UniProt P0DPI0); conditions: 150 uM
[6] = target: Botulinum neurotoxin type A (Clostridium botulinum) (UniProt P0DPI0); conditions: 5 uM
[7] = target: T1, Botulinum neurotoxin type A; remark: listed apart in the source
[8] = target: Botulinum neurotoxin type A (Clostridium botulinum) (UniProt P0DPI0); conditions: 500 uM
[9] = target: T1, Botulinum neurotoxin type A; remark: listed apart in the source

T1 sequence (P0DPI0 2-448 limits assumed): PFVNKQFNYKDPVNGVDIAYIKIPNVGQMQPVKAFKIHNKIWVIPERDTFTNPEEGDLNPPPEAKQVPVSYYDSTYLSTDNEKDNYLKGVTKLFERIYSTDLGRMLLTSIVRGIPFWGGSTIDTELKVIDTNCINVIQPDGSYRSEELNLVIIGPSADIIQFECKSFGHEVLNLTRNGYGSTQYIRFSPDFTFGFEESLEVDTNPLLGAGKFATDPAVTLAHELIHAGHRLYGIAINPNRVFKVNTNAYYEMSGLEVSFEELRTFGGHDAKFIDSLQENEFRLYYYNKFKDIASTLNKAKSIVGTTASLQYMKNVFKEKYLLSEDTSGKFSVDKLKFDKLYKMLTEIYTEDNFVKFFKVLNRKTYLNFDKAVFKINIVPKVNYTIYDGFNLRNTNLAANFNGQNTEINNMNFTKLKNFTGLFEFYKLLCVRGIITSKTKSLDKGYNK
Botulinum neurotoxin type A (Clostridium botulinum), sequence (P0DPI0 2-448 limits assumed): as above

Which IC50 [1] does the source give for `COC(=O)c1ccc(O)c2nc3c(C=O)c(O)cc(O)c3nc12` [LOMOFUNGIN] here?
The IC50 was no less than 50 µM.

And the EC50 [2]?
Its EC50 is 131 µM.

What about the Ratio IC50 [3] of the same compound?
The Ratio IC50 was 20.

And the inhibition [4]?
Its inhibition is 10%.

What about the inhibition [5] of the same compound?
Its inhibition is greater than 70%.

What about the inhibition [6] of the same compound?
The inhibition was “Active”.

And the Ki [7]?
The Ki was 6.7 µM.

How did the inhibition [8] turn out when `Oc1cccc2cccnc12` [OXYQUINOLINE] was run?
Its inhibition is “inactive”.

What about the IC50 [9] of the same compound?
Its IC50 is “Not Active”.

— ChEMBL document CHEMBL2157915, “Identification of a Natural Product Antagonist against the Botulinum Neurotoxin Light Chain Protease” (ACS Med Chem Lett, 2010)
